Data: US4772587A, “Dipeptide derivative of fatty acid” (Suntory Limited, priority 1985, dated 1988)
Residues, ends and D or L forms follow the SMILES beside them. *: point of attachment. Oleoyl = CCCCCCCC/C=C\CCCCCCCC(=O)*

Assays:
[1] = Solubility in organic solvents; type: physicochemical
Source text: All the compouds in Table 1 are oils which are soluble in CCl4, ether, CHCl3, CH2 Cl2, AcOEt and MeOH.

[2] = tested on: ddY strain male mice; assay: Anti-hypoxia action (survival time in desiccator evacuated to 180 mmHg); type: in vivo; conditions: for No. of survival/used (Drug): 30 minutes before evacuation to 180 mmHg
Description: The compounds of the present invention were checked for their anti-hypoxia action in ddY strain male mice (body weight: 25-34 g). Each of the treated groups consisted of 7 to 10 mice. Test samples were prepared by adding 2 to 3 drops of Tween 80® to physiological saline and suspending the respective compounds in the saline. The so conditioned test samples were administered (0.1 m 10 g) to each of the mice used.
At 30 minutes after the administration, each of the mice was placed in a desiccator having a volume of 1 l, and the desiccator was evacuated to 180 mmHg using a vacuum pump. The period of time from the start of the evacuation until the arrest of breathing was defined as Survival Time (minute).
When a mouse survived for 15 minutes or more, the survival time was recorded as being 15 minutes. Student's t-test was employed for significance analysis.

[3] = tested on: experimental amnesia caused in rats by scopolamine; assay: Preventive effect against experimental amnesia caused in rats by scopolamine (passive avoidance learning); type: in vivo, Wister male rats; conditions: sample 25 μg/kg i.p.; scopolamine 3 mg/kg i.p. after learning
Description: Several of the anti-prolyl endopeptidase compounds of the present invention were checked for their ability to prevent the inhibition of long-term memory fixation by scopolamine. Solutions of physiological saline (0.3 ml) that contained selected compounds of the present inventions in varying amounts ([…], 0.25 mg, 0.1 mg, 0.025 mg and 0.010 mg/kg) were administered intraperitoneally once a day to Wister male rats (100-120 g). One hour after the administration, electric shocks (1.7 mA) were applied to the rats so that they would acquire passive avoidance learning. Immediately thereafter, scopolamine was administered intraperitoneally to each rat in an amount of 3 mg per kg of body weight.
The result of the test was assessed both 24 hours and 48 hours after the administration of scopolamine. The number of amnesic rats and of sound rats was counted for each of the control group (rats to which the test compounds had not been administered but to which only scopolamine and physiological saline had been administered intraperitoneally and the treated group (rats to which both the test compound and scopolamine had been administered). The results are shown in Table 3.

[4] = target: prolyl endopeptidase (Elizabethkingia meningoseptica, UniProt P27028); assay: Measurement of anti-prolyl endopeptidase activity (decomposition of Z-glycyl-proline-β-naphthylamide); type: biochemical; conditions: substrate Z-glycyl-proline-β-naphthylamide, phosphate buffer pH 7.0
Description: The method of Yoshimoto and Tsuru (T. Yoshimoto and D. Tsuru, Agr. Biol. Chem. 42, 2417, 1978) was used to measure the anti-prolyl endopeptidase activities of several compounds of the present invention. A mixture of 0.0025M Z-glycyl-proline-β-naphthylamide (0.25 ml), 0.1M phosphate buffer (pH, 7.0; 0.99 ml) and a solution of a particular anti-prolyl endopeptidase compound (0.01 ml) was incubated in a test tube at 37° C. for 3 minutes. Thereafter, 0.1 ml of a solution of prolyl endopeptidase (0.2 U/ml) was added and the mixture was heated at 35° C. for 10 minutes. After the reaction, 2.0 ml of Triton X-100 in 1M acetate buffer (pH, 4.0) was added to the reaction mixture until the final concentration of the surfactant was 10%. The mixture was left at room temperature for 15 minutes and the absorbance (a) at 410 nm was measured.
A sample for blind test was prepared by using the buffer instead of the anti-prolyl endopeptidase compound and its absorbance (b) was also measured. The percent inhibition of prolyl endopeptidase was calculated by the formula: ((b-a)/b)×100, and the amount of a specific compound to achieve 50% inhibition (IC50) was determined.

[5] = tested on: experimental amnesia caused in rats by scopolamine; assay: Preventive effect against experimental amnesia caused in rats by scopolamine (passive avoidance learning); type: in vivo, Wister male rats; conditions: administered orally (so in the source) in an amount of 0.025 mg/kg

Sequence of prolyl endopeptidase (P27028 21-705): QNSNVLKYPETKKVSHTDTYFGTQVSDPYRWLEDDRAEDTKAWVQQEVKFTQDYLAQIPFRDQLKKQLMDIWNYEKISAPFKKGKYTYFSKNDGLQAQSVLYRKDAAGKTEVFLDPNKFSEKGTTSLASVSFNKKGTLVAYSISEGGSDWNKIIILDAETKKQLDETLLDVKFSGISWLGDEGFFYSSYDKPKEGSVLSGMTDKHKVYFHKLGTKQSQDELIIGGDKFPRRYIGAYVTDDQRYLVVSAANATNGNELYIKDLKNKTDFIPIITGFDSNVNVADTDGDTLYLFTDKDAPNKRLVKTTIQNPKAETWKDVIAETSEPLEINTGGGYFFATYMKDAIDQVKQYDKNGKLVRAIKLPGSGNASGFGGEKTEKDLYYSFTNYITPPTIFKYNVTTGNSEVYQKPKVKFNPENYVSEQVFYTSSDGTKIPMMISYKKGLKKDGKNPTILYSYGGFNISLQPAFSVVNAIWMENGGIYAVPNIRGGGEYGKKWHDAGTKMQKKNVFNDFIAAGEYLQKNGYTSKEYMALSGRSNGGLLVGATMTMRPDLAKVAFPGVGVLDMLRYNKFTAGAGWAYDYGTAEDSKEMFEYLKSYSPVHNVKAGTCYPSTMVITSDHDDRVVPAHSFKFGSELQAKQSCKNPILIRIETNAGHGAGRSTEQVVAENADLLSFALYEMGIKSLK

Compound | solubility in benzene [1] | Survival time Ratio (Drug/Control) ([2]; 1 mg/kg i.p.) | No. of survival/used (Drug) ([2]; 1 mg/kg i.p.) | Survival time (Mean ± S.E.), Drug ([2]; 1 mg/kg i.p., p < 0.05 vs control) | Survival time Ratio (Drug/Control) ([2]; 10 mg/kg i.p.) | No. of survival/used (Drug) ([2]; 10 mg/kg i.p.) | Survival time (Mean ± S.E.), Drug ([2]; 10 mg/kg i.p., p < 0.1 vs control) | Avoidance time 24 hrs. later [3] | Avoidance time 48 hrs. later [3] | No. of amnesic rats/No. of rats tested [3] | Percentage amnesia [3] | IC50 (amount of compound to achieve 50% inhibition) [4] | anti-amnesic action (in words) [5]
CCCCCCCC/C=C\CCCCCCCC(=O)NC(Cc1ccccc1)C(=O)N1CCCC1C(=O)OC (stereo not drawn) [SUAM 1194, oleoyl-Phe-Pro-OMe] (Oleoyl-Phe-Pro-OMe; configuration not given here) | soluble in benzene | – | – | – | – | – | – | – | – | – | – | – | –
CCCCCCCC/C=C\CCCCCCCC(=O)N[C@@H](Cc1ccccc1)C(=O)N1CCC[C@H]1C=O [SUAM 1212, oleoyl-Phe-Pro-CHO] (Oleoyl-Phe-Pro-aldehyde) | – | 1.27 | 0/7 | 2.94 ± 0.27 mini | 1.28 | 0/7 | 2.89 mini | 300 s | 285 s | 0/10 | 0% | 0.4 ng/test tube | strong anti-amnesic action
